57 compounds from the supplement of paper PMC7455731 can be followed below.

SMILES strings stand for the structures.

A short description of this data set: collision cross section (DTIM-MS, N2); higher = larger ion. The method, then:
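Collision cross section (CCS) of drug and natural-product chemical standards (validation set 2, measured in this paper). Three independent measurements were made across 2 months; the value taken is their mean (avg_ccs), for the ion adduct given.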

On to `CC1(C)CCC[C@@]2(C)OC(=O)C=C12`, for which the collision cross section (ion adduct: [M+H]+) came out at 138.93 Å².
Turning to `COc1cc(/C=C/C(=O)O)cc(OC)c1OC` [3,4,5-Trimethoxycinnamic acid], where the note is “ion adduct: [M-H]-”, the collision cross section is 167.91 Å².
Regarding `COc1cc(C2c3cc4c(cc3C(O)C3COC(=O)C23)OCO4)cc(OC)c1O` (stereo not drawn) [4'-Demethylpodophyllotoxin], the collision cross section (ion adduct: [M+H]+) was found to be 195.99 Å² and the collision cross section (ion adduct: [M-H]-) came out at 197.38 Å².
Regarding `O=C(C=Cc1ccc(O)c(O)c1)OC1CC(O)(C(=O)O)CC(O)C1OC(=O)C=Cc1ccc(O)c(O)c1` (stereo not drawn) [4,5-Dicaffeoylquinic acid], the collision cross section (ion adduct: [M-H]-) is 213.46 Å².
Compound `Cc1cc(=O)oc2cc(O)c(O)cc12` [4-Methyl-6,7-dihydroxycoumarin] gave a collision cross section (ion adduct: [M+H]+) of 136.8 Å² and a collision cross section (ion adduct: [M-H]-) of 135.33 Å².
For the compound `Cc1cc(=O)oc2cc(O)cc(O)c12` [5,7-Dihydroxy-4-methylcoumarin], the collision cross section by setting is: (ion adduct: [M+H]+) 136.89 Å²; (ion adduct: [M-H]-) 135.28 Å².
The compound `CCCCC[C@H](O)CC(=O)CCc1ccc(O)c(OC)c1` [6-Gingerol] came in with a collision cross section (ion adduct: [M-H]-) of 170.04 Å².
Where the note is “ion adduct: [M-H]-”, `Cc1cc(=O)oc2ccc(O)cc12` [6-Hydroxy-4-methylcoumarin] displayed a collision cross section of 135.48 Å².
Consider `O=c1ccc2cc(O)ccc2o1` [6-Hydroxycoumarin], for which the collision cross section (ion adduct: [M+H]+) is listed as 129.59 Å² and the collision cross section (ion adduct: [M-H]-) is on record as 129.61 Å².
Regarding `CCCCCC=CC(=O)CCc1ccc(O)c(OC)c1` [6-Shogaol], for the setting “ion adduct: [M-H]-”, the collision cross section is 167.21 Å².
With `O=c1cc(-c2ccccc2)c2ccc(O)c(O)c2o1` [7,8-Dihydroxy-4-phenylcoumarin], the collision cross section amounted to 156.5 Å² (ion adduct: [M+H]+) and 157.01 Å² (ion adduct: [M-H]-).
`COc1ccc2ccc(=O)oc2c1` [7-Methoxycoumarin]: the collision cross section (ion adduct: [M+H]+) was 131.39 Å².
On to `Cc1cc(=O)oc2c([N+](=O)[O-])c(O)ccc12` [7-hydroxy-4-methyl-8-nitrocoumarin], for which, where the note is “ion adduct: [M+H]+”, the collision cross section came to 144.57 Å².
Under “ion adduct: [M-H]-”, `CCCCCCCC(O)CC(=O)CCc1ccc(O)c(OC)c1` (stereo not drawn) [8-Gingerol] showed a collision cross section of 178.08 Å².
For the compound `COC(=O)C1=CO[C@@H](O[C@@H]2O[C@H](CO)[C@@H](O)[C@H](O)[C@H]2O)[C@H]2[C@@H]1[C@H](O)C[C@]2(C)OC(C)=O` [8-O-Acetylshanzhiside methyl ester], where the note is “ion adduct: [M-H]-”, the collision cross section is 208.19 Å².
`CCCCCCCCC[C@H](O)CC(=O)CCc1ccc(O)c(OC)c1` [10-Gingerol] gave a collision cross section (ion adduct: [M-H]-) of 188 Å².
The same measure, in the same setting: then `CC(C)=CCC[C@](C)(O)[C@H]1CC[C@]2(C)[C@@H]1[C@H](O)C[C@@H]1[C@@]3(C)CC[C@H](O)C(C)(C)[C@@H]3CC[C@]12C` [(20S)-Protopanaxdiol], with 222.94 Å².
Still for that read-out and setting: the same measure for `CC(C)(C)[C@]1(O)C[C@@H]2OC(=O)C[C@@]23C(=O)O[C@@H]2OC(=O)[C@H](O)[C@]213` [(-)-Bilobalide]: 162.4 Å².
Consider `CC(C)C1=CC2=CC[C@@H]3[C@](C)(CCC[C@@]3(C)C(=O)O)[C@H]2CC1` [Abietic acid], for which the collision cross section by setting is: (ion adduct: [M+H]+) 174.96 Å²; (ion adduct: [M-H]-) 185.72 Å².
Taken in the same sequence, the figures for `CC(=O)Nc1nnc(S(N)(=O)=O)s1` [Acetazolamide] were 142.71 Å² and 138.64 Å².
For `COc1cc(C(C)=O)ccc1O` [Acetovanillone], the collision cross section (ion adduct: [M-H]-) is listed as 133.81 Å².
Take `Nc1nc2c(ncn2COCCO)c(=O)[nH]1` [Aciclovir]: the collision cross section runs as follows: (ion adduct: [M+H]+) 149.17 Å²; (ion adduct: [M-H]-) 148.31 Å².
Take `OC[C@@H](O)[C@@H](O)[C@@H](O)[C@@H](O)CO` [Allitol]: where the note is “ion adduct: [M-H]-”, the collision cross section is recorded as 132.47 Å².
`O=C(C=CC=Cc1ccccc1)CCc1ccccc1` [Alnustone] had a collision cross section (ion adduct: [M+H]+) of 168.73 Å² and a collision cross section (ion adduct: [M-H]-) of 178.13 Å².
`COc1cc(O)cc2c1C(=O)C[C@@H](c1ccccc1)O2` [Alpinetin] returned a collision cross section (ion adduct: [M+H]+) of 160.76 Å².
For the compound `C=CC[C@]1(O)CC[C@H]2[C@@H]3CCC4=CC(=O)CCC4=C3C=C[C@@]21C` [Altrenogest], the collision cross section (ion adduct: [M+H]+) was determined as 178.86 Å² and the collision cross section (ion adduct: [M-H]-) came to 180.56 Å².
As to `COc1cc(NS(C)(=O)=O)ccc1Nc1c2ccccc2nc2ccccc12` [Amsacrine], the collision cross section runs as follows: (ion adduct: [M+H]+) 195.94 Å²; (ion adduct: [M-H]-) 199.97 Å².
Turning to `N#C[C@H](O[C@@H]1O[C@H](CO[C@@H]2O[C@H](CO)[C@@H](O)[C@H](O)[C@H]2O)[C@@H](O)[C@H](O)[C@H]1O)c1ccccc1` [Amygdalin], the collision cross section was determined as 214.69 Å² (ion adduct: [M+H]+) and 205.69 Å² (ion adduct: [M-H]-).
`COc1ccc(C[C@H]2NC[C@H](O)[C@H]2OC(C)=O)cc1` [Anisomycin] showed a collision cross section (ion adduct: [M+H]+) of 164.18 Å².
Compound `COc1ccc(C[C@H]2COC(=O)[C@@H]2Cc2ccc(O[C@@H]3O[C@H](CO)[C@@H](O)[C@H](O)[C@H]3O)c(OC)c2)cc1OC` [Arctiin] had a collision cross section (ion adduct: [M-H]-) of 220.58 Å².
`C[C@H]1[C@H](OC(=O)CCC(=O)O)O[C@@H]2O[C@@]3(C)CC[C@H]4[C@H](C)CC[C@@H]1[C@@]24OO3` [Artesunate] returned a collision cross section (ion adduct: [M-H]-) of 185.75 Å².
With `O=C1C(O)=C([C@H]2CC[C@H](c3ccc(Cl)cc3)CC2)C(=O)c2ccccc21` [Atovaquone], the collision cross section (ion adduct: [M-H]-) is reported as 193.52 Å².
With `O=C(Nc1ccccc1)c1ccccc1I` [Benodanil], the collision cross section runs as follows: (ion adduct: [M+H]+) 152.62 Å²; (ion adduct: [M-H]-) 156.05 Å².
As to `COc1c2ccoc2cc2oc(=O)ccc12` [Bergapten], the collision cross section (ion adduct: [M+H]+) stood at 139.92 Å².
`COc1ccc(-c2cc(=O)c3c(O)cc(O)cc3o2)cc1-c1c(O)cc(O)c2c(=O)cc(-c3ccc(O)cc3)oc12` [Bilobetin]: the collision cross section came to 230.49 Å² (ion adduct: [M+H]+) and 221.44 Å² (ion adduct: [M-H]-).
For `Oc1c(Cl)cc(Cl)cc1Sc1cc(Cl)cc(Cl)c1O` [Bithionol], under “ion adduct: [M-H]-”, the collision cross section was found to be 169.35 Å².
As to `O=C(Nc1nc(-c2ccc(O)c(O)c2)c(-c2ccccc2)s1)c1ccc(O)c(O)c1` [COH29], the collision cross section is, setting by setting: (ion adduct: [M+H]+) 207.91 Å²; (ion adduct: [M-H]-) 200.74 Å².
With `O=C(/C=C/c1ccc(O)c(O)c1)OCCc1ccccc1` [Caffeic acid phenethyl ester], the collision cross section (ion adduct: [M-H]-) is given as 176.94 Å².
The compound `CNC(=O)Oc1cccc2ccccc12` [Carbaryl] displayed a collision cross section (ion adduct: [M-H]-) of 144.36 Å².
`COC(=O)Nc1nc2ccccc2[nH]1` [Carbendazim] came in with a collision cross section (ion adduct: [M+H]+) of 138.81 Å².
In turn, `COc1cc(O)cc(O)c1C(=O)/C=C/c1ccccc1` [Cardamonin] had a collision cross section (ion adduct: [M+H]+) of 164.02 Å² and a collision cross section (ion adduct: [M-H]-) of 167.35 Å².
In turn, `O=C(N[C@H](CO)[C@H](O)c1ccc([N+](=O)[O-])cc1)C(Cl)Cl` [Chloramphenicol] yielded a collision cross section (ion adduct: [M-H]-) of 166.95 Å².
Take `Nc1ccn(C[C@@H](CO)OCP(=O)(O)O)c(=O)n1` [Cidofovir]: the collision cross section by setting is: (ion adduct: [M+H]+) 157.98 Å²; (ion adduct: [M-H]-) 158.46 Å².
`Nc1nc(Cl)nc2c1ncn2[C@@H]1O[C@H](CO)[C@@H](O)[C@@H]1F` [Clofarabine] displayed a collision cross section (ion adduct: [M+H]+) of 158.19 Å² and a collision cross section (ion adduct: [M-H]-) of 162.03 Å².
On to `O=c1ccc2ccccc2o1` [Coumarin], for which the collision cross section (ion adduct: [M+H]+) amounted to 124.69 Å².
The compound `CC1(C)CC[C@]2(C(=O)O)CC[C@]3(C)C(=CC[C@@H]4[C@@]5(C)C[C@@H](O)[C@H](O)C(C)(C)[C@@H]5CC[C@]43C)[C@@H]2C1` [Crategolic acid] displayed a collision cross section (ion adduct: [M-H]-) of 222.53 Å².
For `CC(/C=C/C=C(\C)C(=O)O[C@@H]1O[C@H](CO)[C@@H](O)[C@H](O)[C@H]1O)=C\C=C\C=C(C)\C=C\C=C(/C)C(=O)O[C@@H]1O[C@H](CO[C@@H]2O[C@H](CO)[C@@H](O)[C@H](O)[C@H]2O)[C@@H](O)[C@@H](O)[C@H]1O` [Crocin II], the collision cross section (ion adduct: [M-H]-) was 280.87 Å².
Where the note is “ion adduct: [M-H]-”, `CC(/C=C/C=C(\C)C(=O)O[C@@H]1O[C@H](CO[C@@H]2O[C@H](CO)[C@@H](O)[C@H](O)[C@H]2O)[C@@H](O)[C@H](O)[C@H]1O)=C\C=C\C=C(C)\C=C\C=C(/C)C(=O)O[C@@H]1O[C@H](CO[C@@H]2O[C@H](CO)[C@@H](O)[C@H](O)[C@H]2O)[C@@H](O)[C@H](O)[C@H]1O` [Crocin] had a collision cross section of 310.8 Å².
For the compound `C[C@H]1C(=O)O[C@@H]2CCN3CC=C(COC(=O)[C@](C)(O)[C@]1(C)O)[C@H]23` [Crotaline], under “ion adduct: [M+H]+”, the collision cross section worked out at 176.34 Å².
In turn, `Nc1nc(N)nc(NC2CC2)n1` [Cyromazine] showed a collision cross section (ion adduct: [M+H]+) of 135.92 Å².
Under “ion adduct: [M-H]-”, `Nc1ccn([C@@H]2O[C@H](CO)[C@@H](O)[C@@H]2O)c(=O)n1` [Cytarabine] yielded a collision cross section of 151.89 Å².
Consider `CCCCCCCCOC(=O)c1ccccc1C(=O)OCCCCCCCC` [DI-N-OCTYL PHTHALATE], for which the collision cross section (ion adduct: [M+H]+) amounted to 211 Å².
Where the note is “ion adduct: [M-H]-”, `CN(C)NC(=O)CCC(=O)O` [Daminozide] returned a collision cross section of 135.88 Å².
With `COc1cc2c(cc1OC)C(Cc1ccc(Oc3cc(CC4c5cc(OC)c(OC)cc5CCN4C)ccc3O)cc1)N(C)CC2` (stereo not drawn) [Dauricine], the collision cross section runs as follows: (ion adduct: [M+H]+) 248.03 Å²; (ion adduct: [M-H]-) 259.6 Å².
With `CC(C)=CC(=O)OC1Cc2cc3ccc(=O)oc3cc2OC1(C)C` (stereo not drawn) [Decursin], the collision cross section by setting is: (ion adduct: [M+H]+) 185.63 Å²; (ion adduct: [M-H]-) 180.82 Å².
As for `COc1cc2c(cc1OC)[C@@H]1C(=O)c3ccc4c(c3O[C@@H]1CO2)C=CC(C)(C)O4` [Deguelin], the collision cross section is on record as 196.5 Å² (ion adduct: [M+H]+) and 198.36 Å² (ion adduct: [M-H]-).
Where the note is “ion adduct: [M+H]+”, `COc1cc(C=CC(=O)CC(=O)C=Cc2ccc(O)cc2)ccc1O` [Demethoxycurcumin] came in with a collision cross section of 193.33 Å².
